For this assay, the target named is T1, HIV-1 protease wild type protein (Human immunodeficiency virus type 1 group M subtype B, UniProt P04585).
T1 construct: HIV-1 protease wild type protein; purchased AscoProt Biotech, Prague, Czech Republic
As to the kind of experiment: Biochemical protease assay. Here is the method: For the determination of their in vitro activity on HIV proteases the test substances are dissolved in DMSO and serially diluted. In each case 0.5 μl of substance dilution, 20 μl of 0.2-1 nM HIV-1 protease wild type or mutant protein (e.g., multiresistant isolate “35513”: L10I, I15V, L19I, K20R, E35D, M36I, R41K, I54V, L63P, H69K, A71V, T74P, I84V, L89M, L90M, 193L, AscoProt Biotech, Prague, Czech Republic) in buffer 1 (50 mM sodium acetate pH 4.9, 0.02% BSA, 0.1 mM EDTA, 0.5 mM DTT) and 20 μl of 8 μM substrate (M1865 from Bachem, Bubendorf, Switzerland; Matayoshi et al., Science 1990, 247, 954-8) in buffer 1 are added successively to a 384 well microtiter plate (Greiner, Frickenhausen, Germany), incubated for 60-180 minutes at 32° C. and the fluorescence is measured (e.g., Tecan Safire, 340 nm extinction, 520 nm emission). IC50 values are determined by graphical plotting the substance concentration against the percentage inhibition.
In the case of `Cc1cc(-c2cccc(S(C)(=O)=O)c2)c(Cl)cc1C1=C(O)C2(CCCN(S(=O)(=O)CCCC(F)(F)F)C2)OC1=O` (stereo not shown) [Example 114], the IC50 was no more than 100 nM. With `Cc1cc(-c2cccc(S(C)(=O)=O)c2)c(Cl)cc1C1=C(O)C2(CCCN(C(=O)/C=C\c3cccc(C#N)c3)C2)OC1=O` (stereo not shown) [Example 124] the figure was no more than 100 nM; with `Cc1cc(-c2cccc(S(C)(=O)=O)c2)c(Cl)cc1C1=C(O)C2(CCCC2)OC1=O` [Example 200], no more than 100 nM. In turn, `Cc1cc(-c2cccc(S(C)(=O)=O)c2)c(Cl)cc1C1=C(O)C2(CCCCC2)OC1=O` [Example 36] displayed an IC50 of no more than 100 nM.

The molecule `Cc1cc(-c2cccc(N(C)S(C)(=O)=O)c2)c(Cl)cc1C1=C(O)C2(CCCCC2)OC1=O` [Example 185, N-[2′-Chloro-4′-(4-hydroxy-2-oxo-1-oxaspiro[4.5]dec-3-en-3-yl)-5′-methylbiphenyl-3-yl]-N-methylmethanesulfonamide] returned an IC50 of no more than 100 nM. With `CC(=O)N1CCCC2(C1)OC(=O)C(c1cc(Cl)c(-c3cccc(S(C)(=O)=O)c3)cc1C)=C2O` (stereo not shown) [Example 104] the figure was no more than 100 nM. As for `Cc1cc(-c2cc(C)c(C3=C(O)C4(CCCCC4)OC3=O)cc2Cl)ccc1F` [Example 34], the IC50 is no more than 100 nM. As for `COC1CCC2(CC1)OC(=O)C(c1cc(Cl)c(-c3ccc(F)cc3)cc1C)=C2O` (stereo not shown) [Example 54], the figure is no more than 100 nM; as for `CC/C=C\C(=O)N1CCCC2(C1)OC(=O)C(c1cc(Cl)c(-c3cccc(S(C)(=O)=O)c3)cc1C)=C2O` (stereo not shown) [Example 120], no more than 100 nM. With `Cc1cc(-c2cccc(S(C)(=O)=O)c2)c(Cl)cc1C1=C(O)C2(CCCN(CC(=O)NCCc3ccccc3)C2)OC1=O` (stereo not shown) [Example 130] the figure was no more than 100 nM; with `Cc1cc(-c2cccc(S(C)(=O)=O)c2)c(Cl)cc1C1=C(O)C2(CCCN(CC(=O)NCc3ccccc3)C2)OC1=O` (single isomer, unassigned) [Example 164], no more than 100 nM. As for `Cc1cc(-c2cccc(S(C)(=O)=O)c2)c(Cl)cc1C1=C(O)C2(CCN(C(=O)N(C(C)C)C(C)C)CC2)OC1=O` [Example 156], the figure is no more than 100 nM; as for `Cc1cc(-c2cccc(S(C)(=O)=O)c2)c(Cl)cc1C1=C(O)C2(CCCN(CC(=O)NCc3ccccn3)C2)OC1=O` (stereo not shown) [Example 163], no more than 100 nM; as for `Cc1cc(-c2cccc(S(C)(=O)=O)c2)c(Cl)cc1C1=C(O)C2(CCCN(C(=O)CCCc3ccccc3)C2)OC1=O` (stereo not shown) [Example 135], no more than 100 nM. For `Cc1cc(-c2cccc(S(C)(=O)=O)c2)c(Cl)cc1C1=C(O)C2(CCCN(CC(=O)NCc3ccoc3)C2)OC1=O` (stereo not shown) [Example 168], the IC50 was no more than 100 nM. As for `Cc1cc(-c2cccc(C(=O)NC3CC3)c2)c(Cl)cc1C1=C(O)C2(CCCCC2)OC1=O` [Example 50], the figure is no more than 100 nM. With `Cc1cc(-c2cccc(Cl)c2)c(Cl)cc1C1=C(O)C2(CCCCC2)OC1=O` [Example 31] the figure was no more than 100 nM; with `CCS(=O)(=O)c1ccc(-c2cc(C)c(C3=C(O)C4(CCCCC4)OC3=O)cc2Cl)cc1` [Example 42], no more than 100 nM; with `Cc1cc(-c2cccc(CO)c2)c(Cl)cc1C1=C(O)C2(CCCCC2)OC1=O` [Example 26], no more than 100 nM. `Cc1cc(-c2cccc(NS(C)(=O)=O)c2)c(Cl)cc1C1=C(O)C2(CCCCCC2)OC1=O` [Example 199] showed an IC50 of no more than 100 nM.

`Cc1cc(-c2cccc(S(C)(=O)=O)c2)c(Cl)cc1C1=C(O)C2(CCCN(C(=O)CC3CCCC3)C2)OC1=O` (stereo not shown) [Example 136] had an IC50 of no more than 100 nM. As for `Cc1cc(-c2ccc(NS(C)(=O)=O)cc2)c(Cl)cc1C1=C(O)C2(CCCCC2)OC1=O` [Example 178], the figure is no more than 100 nM. With `Cc1cc(-c2ccc(NC(=O)OC(C)(C)C)cc2)c(Cl)cc1C1=C(O)C2(CCCCC2)OC1=O` [Example 43] the figure was no more than 100 nM; with `Cc1cc(-c2cccc(S(C)(=O)=O)c2)c(Cl)cc1C1=C(O)C2(CCCN(CC(=O)NC(C)c3ccccc3)C2)OC1=O` (stereo not shown) [Example 134], no more than 100 nM; with `Cc1cc(-c2cc(NS(C)(=O)=O)ccc2F)c(Cl)cc1C1=C(O)C2(CCCCC2)OC1=O` [Example 92], no more than 100 nM.

As for `CCOC1CCCCC12OC(=O)C(c1cc(Cl)c(-c3cccc(S(C)(=O)=O)c3)cc1C)=C2O` (single isomer, unassigned) [Example 75], the IC50 was no more than 100 nM. With `Cc1cc(C2=C(O)C3(CCCCC3)OC2=O)c(Cl)cc1-c1cccc(S(C)(=O)=O)c1` [Example 71] the figure was no more than 100 nM.

In turn, `Cc1cc(-c2ccc([N+](=O)[O-])cc2)c(Cl)cc1C1=C(O)C2(CCC3CCCC3C2)OC1=O` (stereo not shown) [Example 89] returned an IC50 of no more than 100 nM.

Turning to `CC(=O)c1cccc(-c2cc(C)c(C3=C(O)C4(CCCCC4)OC3=O)cc2Cl)c1` [Example 27], the IC50 is no more than 100 nM. With `Cc1cc(-c2cccc(S(C)(=O)=O)c2)c(Cl)cc1C1=C(O)C2(CCCN(C(=O)/C=C/c3cccnc3)C2)OC1=O` (stereo not shown) [Example 111] the figure was no more than 100 nM; with `Cc1cc(-c2cccc(S(C)(=O)=O)c2)c(Cl)cc1C1=C(O)C2(CCCN(CC(=O)NCc3ccccc3)C2)OC1=O` (stereo not shown) [Example 128], no more than 100 nM.
